Measurements from PubChem BioAssay AID256 (DTP/NCI, 2004).
Values joined by “and” are separate entries in the source; they are usually repeats but may differ in a detail not shown here. Identical values can stand only once. Inconclusive results and toxic doses are left out.

Test system: CD2F1 mice, L1210 leukemia ip, survival T/C
Assay: NCI In Vivo Anticancer Drug Screen. Data for tumor model L1210 Leukemia (intraperitoneal) in CD2F1 (CDF1) mice
Conditions: higher = longer survival
Procedure, shortened: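 Vehicle-treated tumor-bearing mice served as controls (C) for compound-treated mice (T). Reported figure is T divided by C.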

[1] = endpoint: mean survival time, dose: 100.0 mg/kg/injection, schedule: Q01DX001 (ip), vehicle: saline
[2] = endpoint: mean survival time, dose: 200.0 mg/kg/injection, schedule: Q01DX001 (ip), vehicle: saline
[3] = endpoint: mean survival time, dose: 400.0 mg/kg/injection, schedule: Q01DX001 (ip), vehicle: saline
[4] = endpoint: mean survival time, dose: 400.0 mg/kg/injection, schedule: Q01DX009 (ip), vehicle: saline
[5] = endpoint: mean survival time, dose: 25.0 mg/kg/injection, schedule: Q01DX009 (ip), vehicle: saline with Tween-80
[6] = endpoint: mean survival time, dose: 50.0 mg/kg/injection, schedule: Q01DX009 (ip), vehicle: saline with Tween-80
[7] = endpoint: mean survival time, dose: 100.0 mg/kg/injection, schedule: Q01DX009 (ip), vehicle: saline with Tween-80
[8] = endpoint: mean survival time, dose: 100.0 mg/kg/injection, schedule: Q01DX001 (ip), vehicle: saline with Tween-80
[9] = endpoint: mean survival time, dose: 200.0 mg/kg/injection, schedule: Q01DX001 (ip), vehicle: saline with Tween-80
[10] = endpoint: mean survival time, dose: 400.0 mg/kg/injection, schedule: Q01DX001 (ip), vehicle: saline with Tween-80
[11] = endpoint: mean survival time, dose: 200.0 mg/kg/injection, schedule: Q01DX009 (ip), vehicle: saline with Tween-80

With `CC1OC(O[C@@H]2C=C3CC[C@@H]4[C@H](CC[C@]5(C)[C@@H](c6ccc(=O)oc6)CC[C@]45O)[C@@]3(C)CC2)C(O)C(O)C1O` (some centres undefined) the T/C (endpoint: mean survival time, dose: 1.25 mg/kg/injection, schedule: Q01DX001 (sc), vehicle: steriod suspending solution) was 101 % of control, the T/C (endpoint: mean survival time, dose: 1.25 mg/kg/injection, schedule: Q01DX009 (sc), vehicle: steriod suspending solution) was 94 % of control and the T/C (endpoint: mean survival time, dose: 2.5 mg/kg/injection, schedule: Q01DX001 (sc), vehicle: steriod suspending solution) was 101 % of control. For the same compound, the T/C (endpoint: mean survival time, dose: 2.5 mg/kg/injection, schedule: Q01DX009 (sc), vehicle: steriod suspending solution) was 97 % of control, the T/C (endpoint: mean survival time, dose: 2.5 mg/kg/injection, schedule: Q04DX003 (sc), vehicle: steriod suspending solution) was 93 % of control and the T/C (endpoint: mean survival time, dose: 5.0 mg/kg/injection, schedule: Q01DX001 (sc), vehicle: steriod suspending solution) was 98 % of control. For the same compound, the T/C (endpoint: mean survival time, dose: 5.0 mg/kg/injection, schedule: Q01DX009 (sc), vehicle: steriod suspending solution) was 95 % of control, the T/C (endpoint: mean survival time, dose: 5.0 mg/kg/injection, schedule: Q04DX003 (sc), vehicle: steriod suspending solution) was 95 % of control and the T/C (endpoint: mean survival time, dose: 10.0 mg/kg/injection, schedule: Q01DX001 (sc), vehicle: steriod suspending solution) was 101 % of control. The T/C (endpoint: mean survival time, dose: 10.0 mg/kg/injection, schedule: Q01DX009 (sc), vehicle: steriod suspending solution) was 95 % of control, the T/C (endpoint: mean survival time, dose: 10.0 mg/kg/injection, schedule: Q04DX003 (sc), vehicle: steriod suspending solution) was 112 % of control and the T/C (endpoint: mean survival time, dose: 20.0 mg/kg/injection, schedule: Q01DX001 (sc), vehicle: steriod suspending solution) was 103 % of control. For the same compound, the T/C (endpoint: mean survival time, dose: 20.0 mg/kg/injection, schedule: Q04DX003 (sc), vehicle: steriod suspending solution) was 101 % of control and the T/C (endpoint: mean survival time, dose: 40.0 mg/kg/injection, schedule: Q04DX003 (sc), vehicle: steriod suspending solution) was 95 % of control.
With `CC(=O)OCC1OC(n2ncc(=O)[nH]c2=O)C(OC(C)=O)C1OC(C)=O` (centres undefined) the T/C (endpoint: mean survival time, dose: 12.5 mg/kg/injection, schedule: Q03HX024 (ip), vehicle: saline) was 112 % of control, the T/C (endpoint: mean survival time, dose: 25.0 mg/kg/injection, schedule: Q03HX024 (ip), vehicle: saline) was 116 % of control and the T/C (endpoint: mean survival time, dose: 50.0 mg/kg/injection, schedule: Q03HX024 (ip), vehicle: saline) was 106 % of control. For the same compound, the T/C [1] was 106 % of control, the T/C [2] was 103 % of control and the T/C [3] was 106 % of control. For the same compound, the T/C [4] was 108 % of control, the T/C (endpoint: mean survival time, dose: 800.0 mg/kg/injection, schedule: Q01DX001 (ip), vehicle: saline) was 117 % of control and the T/C (endpoint: mean survival time, dose: 800.0 mg/kg/injection, schedule: Q01DX009 (ip), vehicle: saline) was 93 % of control.
For `COC(=O)C1OC1(C)c1ccc(C)cc1` (centres undefined), the T/C [5] was 89 % of control, the T/C [6] was 94 % of control and the T/C [7] was 93 % of control.
With `COc1ccc2c(c1)-c1nn(CCCN(C)C)c3ccc([N+](=O)[O-])c(c13)N2` the T/C (endpoint: median survival time, dose: 3.12 mg/kg/injection, schedule: Q01DX005 (ip), vehicle: water) was 152 % of control, the T/C (endpoint: median survival time, dose: 3.12 mg/kg/injection, schedule: Q01DX009 (ip), vehicle: water) was 168 % of control and the T/C (endpoint: median survival time, dose: 6.25 mg/kg/injection, schedule: Q01DX005 (ip), vehicle: water) was 152 % of control. For the same compound, the T/C (endpoint: median survival time, dose: 6.25 mg/kg/injection, schedule: Q01DX009 (ip), vehicle: water) was 216 % of control, the T/C (endpoint: median survival time, dose: 7.5 mg/kg/injection, schedule: Q01DX005 (ip), vehicle: water) was 164 % of control and the T/C (endpoint: median survival time, dose: 12.5 mg/kg/injection, schedule: Q01DX005 (ip), vehicle: water) was 180 % of control. For the same compound, the T/C (endpoint: median survival time, dose: 12.5 mg/kg/injection, schedule: Q01DX009 (ip), vehicle: water) was 113 % of control, the T/C (endpoint: median survival time, dose: 20.83 mg/kg/injection, schedule: Q01DX005 (ip), vehicle: water) was 225 % of control and the T/C (endpoint: median survival time, dose: 25.0 mg/kg/injection, schedule: Q01DX005 (ip), vehicle: water) was 109 % of control. For the same compound, the T/C (endpoint: median survival time, dose: 34.72 mg/kg/injection, schedule: Q01DX005 (ip), vehicle: water) was 107 % of control, the T/C (endpoint: median survival time, dose: 50.0 mg/kg/injection, schedule: Q01DX005 (ip), vehicle: water) was 92 % of control and 94 % of control and the T/C (endpoint: median survival time, dose: 50.0 mg/kg/injection, schedule: Q01DX009 (ip), vehicle: water) was 116 % of control.
`O=S(=O)(c1ccc(Br)cc1)c1ccc(Br)cc1` was tested, and the T/C [8] was 112 % of control, the T/C [9] was 102 % of control and the T/C [10] was 97 % of control.
For `Cc1cccnc1F`, the T/C (endpoint: mean survival time, dose: 12.5 mg/kg/injection, schedule: Q01DX009 (ip), vehicle: saline with Tween-80) was 95 % of control, the T/C [5] was 97 % of control and the T/C [6] was 100 % of control. For the same compound, the T/C (endpoint: mean survival time, dose: 100.0 mg/kg/injection, schedule: Q04DX003 (ip), vehicle: saline with Tween-80) was 93 % of control, the T/C (endpoint: mean survival time, dose: 200.0 mg/kg/injection, schedule: Q04DX003 (ip), vehicle: saline with Tween-80) was 96 % of control and the T/C (endpoint: mean survival time, dose: 400.0 mg/kg/injection, schedule: Q04DX003 (ip), vehicle: saline with Tween-80) was 96 % of control.
For `COc1cc(C=C2C(=O)C=CC2=O)ccc1O`, the T/C (endpoint: mean survival time, dose: 3.13 mg/kg/injection, schedule: Q04DX002 (ip), vehicle: saline with Tween-80) was 108 % of control, the T/C (endpoint: mean survival time, dose: 6.25 mg/kg/injection, schedule: Q04DX002 (ip), vehicle: saline with Tween-80) was 100 % of control and the T/C (endpoint: mean survival time, dose: 12.5 mg/kg/injection, schedule: Q04DX002 (ip), vehicle: saline with Tween-80) was 106 % of control.
`Cc1ccc(NC(=O)ON(C)C)cc1` was tested, and the T/C (endpoint: mean survival time, dose: 100.0 mg/kg/injection, schedule: Q04DX002 (ip), vehicle: other) was 102 % of control.
With `O=c1cc(NCCCOc2ccccc2)[nH]c(=O)[nH]1` the T/C [8] was 98 % of control, the T/C [9] was 98 % of control and the T/C [10] was 98 % of control.
`O=C1C2C3SC(c4nc5ccccc5cc43)C2C(=O)N1c1ccccc1` (centres undefined) was tested, and the T/C (endpoint: mean survival time, dose: 25.0 mg/kg/injection, schedule: Q01DX001 (ip), vehicle: saline with Tween-80) was 92 % of control and the T/C (endpoint: mean survival time, dose: 50.0 mg/kg/injection, schedule: Q01DX001 (ip), vehicle: saline with Tween-80) was 92 % of control.
For `C/C(=N\N=C(/[Se])N1CC2CCC(CC2)C1)c1ccccn1`, the T/C (endpoint: median survival time, dose: 0.75 mg/kg/injection, schedule: Q01DX009 (ip), vehicle: Klucel (hydroxypropylcellulose) (HPC)) was 101 % of control, the T/C (endpoint: median survival time, dose: 1.5 mg/kg/injection, schedule: Q01DX009 (ip), vehicle: Klucel (hydroxypropylcellulose) (HPC)) was 103 % of control and the T/C (endpoint: median survival time, dose: 1.56 mg/kg/injection, schedule: Q01DX009 (ip), vehicle: Klucel (hydroxypropylcellulose) (HPC)) was 93 % of control and 101 % of control. The T/C (endpoint: median survival time, dose: 3.0 mg/kg/injection, schedule: Q01DX009 (ip), vehicle: Klucel (hydroxypropylcellulose) (HPC)) was 102 % of control, the T/C (endpoint: median survival time, dose: 3.12 mg/kg/injection, schedule: Q01DX009 (ip), vehicle: Klucel (hydroxypropylcellulose) (HPC)) was 97 % of control and 110 % of control and the T/C (endpoint: median survival time, dose: 6.0 mg/kg/injection, schedule: Q01DX009 (ip), vehicle: Klucel (hydroxypropylcellulose) (HPC)) was 104 % of control. For the same compound, the T/C (endpoint: median survival time, dose: 6.25 mg/kg/injection, schedule: Q01DX009 (ip), vehicle: Klucel (hydroxypropylcellulose) (HPC)) was 86 % of control, the T/C (endpoint: median survival time, dose: 12.0 mg/kg/injection, schedule: Q01DX009 (ip), vehicle: Klucel (hydroxypropylcellulose) (HPC)) was 102 % of control and the T/C (endpoint: median survival time, dose: 12.5 mg/kg/injection, schedule: Q01DX009 (ip), vehicle: Klucel (hydroxypropylcellulose) (HPC)) was 109 % of control. For the same compound, the T/C (endpoint: median survival time, dose: 25.0 mg/kg/injection, schedule: Q01DX009 (ip), vehicle: Klucel (hydroxypropylcellulose) (HPC)) was 89 % of control.
For `CCOC(=O)C1CCCNC1=O` (centres undefined), the T/C [1] was 101 % of control, the T/C [2] was 94 % of control and the T/C [3] was 95 % of control.
With `O=C(NC/C=C/Br)Nc1cccc2c1CCCC2` the T/C [6] was 94 % of control, the T/C [8] was 89 % of control and the T/C [7] was 99 % of control. For the same compound, the T/C [9] was 86 % of control and the T/C [11] was 88 % of control.
In the case of `CCOC(=O)CC(=O)c1ccccc1SC`, the T/C [7] is reported as 98 % of control, the T/C [11] is reported as 96 % of control and the T/C (endpoint: mean survival time, dose: 400.0 mg/kg/injection, schedule: Q01DX009 (ip), vehicle: saline with Tween-80) is reported as 96 % of control.
With `O=[N+]([O-])c1ccc(NN=C2c3ccccc3Cc3ccccc32)c([N+](=O)[O-])c1` the T/C (endpoint: mean survival time, dose: 25.0 mg/kg/injection, schedule: Q04DX002 (ip), vehicle: saline with Tween-80) was 98 % of control, the T/C (endpoint: mean survival time, dose: 50.0 mg/kg/injection, schedule: Q04DX002 (ip), vehicle: saline with Tween-80) was 91 % of control and the T/C (endpoint: mean survival time, dose: 100.0 mg/kg/injection, schedule: Q04DX002 (ip), vehicle: saline with Tween-80) was 87 % of control.
For `OCCN1CCOCC1`, the T/C (endpoint: mean survival time, dose: 100.0 mg/kg/injection, schedule: Q01DX009 (ip), vehicle: saline) was 103 % of control, the T/C (endpoint: mean survival time, dose: 100.0 mg/kg/injection, schedule: Q04DX003 (ip), vehicle: saline) was 98 % of control and the T/C (endpoint: mean survival time, dose: 200.0 mg/kg/injection, schedule: Q01DX009 (ip), vehicle: saline) was 102 % of control. For the same compound, the T/C (endpoint: mean survival time, dose: 200.0 mg/kg/injection, schedule: Q04DX003 (ip), vehicle: saline) was 95 % of control, the T/C [4] was 103 % of control and the T/C (endpoint: mean survival time, dose: 400.0 mg/kg/injection, schedule: Q04DX003 (ip), vehicle: saline) was 97 % of control.
For `CC/C=C(CC)\C(=C\CC)CC`, the T/C [6] was 100 % of control, the T/C [7] was 100 % of control and the T/C [11] was 107 % of control.
